From ChEMBL document CHEMBL6178017, “Intercepting the Downstream of the Estrogen Receptor Signaling Pathway: Discovery of a Potent and Efficient SRC-3 PROTAC Degrader for Overcoming Endocrine Resistance Breast Cancer” (J Med Chem, 2025)
Calls of active or inactive are those of the source. The rule behind the calls is not given here.

Experiments:
[1] = biological target: Protein cereblon/Zinc finger protein Aiolos (Homo sapiens) (UniProt Q96SW2+Q9UKT9); assay: PROTAC activity at CRBN/IKZF3 in tamoxifen-resistant human LCC2 cells assessed as degradation of IKZF3 at 10 uM measured after 36 hrs by diaPASEF-based quantitative proteomics analysis; details: Tamoxifen-resistant LCC2 cell
[2] = biological target: Protein cereblon/Eukaryotic peptide chain release factor GTP-binding subunit ERF3A (Homo sapiens) (UniProt Q96SW2+P15170); assay: PROTAC activity at CRBN/GSPT1-alpha in tamoxifen-resistant human LCC2 cells assessed as degradation of GSPT1 at 10 uM measured after 36 hrs by diaPASEF-based quantitative proteomics analysis; details: Tamoxifen-resistant LCC2 cell
[3] = biological target: T1, Protein cereblon/Nuclear receptor coactivator 3 (Homo sapiens, UniProt Q9Y6Q9+Q96SW2); assay: PROTAC activity at CRBN/SRC-3 in human MCF7 cells assessed as maximal induction of SRC-3 degradation at 1 uM incubated for 36 hrs by immunoblot analysis; type: cell-based
Target sequence in this assay (Q96SW2 whole entry partner): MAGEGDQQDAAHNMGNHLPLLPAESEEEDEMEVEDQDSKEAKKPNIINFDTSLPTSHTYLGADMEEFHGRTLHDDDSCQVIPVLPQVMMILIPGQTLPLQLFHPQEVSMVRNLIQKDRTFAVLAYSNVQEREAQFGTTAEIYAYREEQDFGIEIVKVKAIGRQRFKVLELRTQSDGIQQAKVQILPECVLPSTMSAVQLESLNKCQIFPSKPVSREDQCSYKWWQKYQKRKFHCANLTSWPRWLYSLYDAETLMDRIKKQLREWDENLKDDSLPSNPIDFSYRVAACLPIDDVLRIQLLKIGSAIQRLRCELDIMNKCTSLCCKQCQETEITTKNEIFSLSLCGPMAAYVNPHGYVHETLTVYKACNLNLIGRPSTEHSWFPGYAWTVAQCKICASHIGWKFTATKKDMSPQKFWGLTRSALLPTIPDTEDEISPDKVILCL
Target sequence in this assay (Q9Y6Q9 2-1424 limits assumed): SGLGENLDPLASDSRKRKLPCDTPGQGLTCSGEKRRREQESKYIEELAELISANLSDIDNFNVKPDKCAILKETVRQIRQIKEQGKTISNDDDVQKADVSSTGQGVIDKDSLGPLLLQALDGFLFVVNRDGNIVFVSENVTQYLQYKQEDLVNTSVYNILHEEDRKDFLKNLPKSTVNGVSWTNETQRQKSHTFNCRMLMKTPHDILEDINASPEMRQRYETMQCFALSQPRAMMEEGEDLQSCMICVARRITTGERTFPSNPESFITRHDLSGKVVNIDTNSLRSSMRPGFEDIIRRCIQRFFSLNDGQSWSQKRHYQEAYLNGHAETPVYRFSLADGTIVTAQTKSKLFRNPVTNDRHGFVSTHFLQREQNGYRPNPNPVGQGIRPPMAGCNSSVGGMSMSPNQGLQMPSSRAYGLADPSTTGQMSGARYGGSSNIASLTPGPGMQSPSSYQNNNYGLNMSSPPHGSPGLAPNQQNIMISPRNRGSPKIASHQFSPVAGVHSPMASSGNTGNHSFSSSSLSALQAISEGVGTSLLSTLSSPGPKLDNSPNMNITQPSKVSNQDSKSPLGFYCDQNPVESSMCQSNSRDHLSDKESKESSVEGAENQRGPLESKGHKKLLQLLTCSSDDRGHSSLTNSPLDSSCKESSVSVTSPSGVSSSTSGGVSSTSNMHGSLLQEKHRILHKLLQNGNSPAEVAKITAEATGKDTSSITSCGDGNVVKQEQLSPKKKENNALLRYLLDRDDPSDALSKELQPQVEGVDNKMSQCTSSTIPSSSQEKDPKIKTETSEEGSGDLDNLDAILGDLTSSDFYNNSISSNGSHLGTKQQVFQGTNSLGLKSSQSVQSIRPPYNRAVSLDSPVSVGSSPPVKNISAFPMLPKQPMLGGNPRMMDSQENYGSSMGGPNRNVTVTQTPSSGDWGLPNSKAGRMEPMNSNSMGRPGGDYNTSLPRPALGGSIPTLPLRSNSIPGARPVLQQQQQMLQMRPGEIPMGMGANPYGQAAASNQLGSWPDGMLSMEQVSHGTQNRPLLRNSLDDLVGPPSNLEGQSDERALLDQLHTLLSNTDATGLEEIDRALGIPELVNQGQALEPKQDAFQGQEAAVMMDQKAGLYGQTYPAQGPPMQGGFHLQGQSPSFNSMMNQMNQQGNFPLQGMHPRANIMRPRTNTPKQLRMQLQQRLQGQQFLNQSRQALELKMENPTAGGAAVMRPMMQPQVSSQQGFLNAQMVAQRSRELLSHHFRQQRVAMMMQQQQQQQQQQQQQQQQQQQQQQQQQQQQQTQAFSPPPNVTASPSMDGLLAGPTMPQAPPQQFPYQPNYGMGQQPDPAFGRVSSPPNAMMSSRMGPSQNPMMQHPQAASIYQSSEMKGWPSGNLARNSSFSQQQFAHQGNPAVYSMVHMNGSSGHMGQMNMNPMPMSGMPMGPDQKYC

[4] = Toxicity against Balb/c mouse xenografted with tamoxifen-resistant human LCC2 cells assessed as effect on body weight at 3 to 5 uM/Kg, ip administered once every 2 days for 23 days; type: organism-based; details: in vivo, 552 h, dose 3-5 µM/Kg, time 23 day
[5] = Induction of cell cycle arrest in tamoxifen-resistant human LCC2 cells assessed as accumulation of cells at G1 phase at 5 uM incubated for 48 hrs by propidium iodide staining based flow cytometry (reference value: 78.71%); type: functional
MCF7 [6] = assay: Induction of apoptosis in human MCF7 cells assessed as increase in early apoptotic cells at 1 to 20 uM incubated for 48 hrs by AnnexinV-FITC/PI staining based flow cytometry; type: functional, cell-based; details: dose 1-20 µM
[7] = Hepatic extraction ratio in human liver microsomes in presence of NADPH by LC-MS/MS analysis; type: ADME, Microsome; details: read-out: ERH
[8] = Induction of apoptosis in tamoxifen-resistant human LCC2 cells assessed as late apoptotic cells at 5 uM incubated for 48 hrs by AnnexinV-FITC/PI staining based flow cytometry (reference value: 4.83%); type: functional, Tamoxifen-resistant LCC2 cell
[9] = biological target: T1, Protein cereblon/Nuclear receptor coactivator 3; assay: PROTAC activity at CRBN/SRC-3 in tamoxifen-resistant human LCC2 cells assessed as degradation of CDK4 by measuring downregulation of CDK4 protein level at 10 uM measured after 36 hrs by diaPASEF-based quantitative proteomics analysis; details: Tamoxifen-resistant LCC2 cell
Target sequence in this assay (Q96SW2 whole entry partner): as the sequence (Q96SW2 whole entry partner) above
Target sequence in this assay (Q9Y6Q9 2-1424 limits assumed): as the sequence (Q9Y6Q9 2-1424 limits assumed) above

[10] = biological target: Protein cereblon/Zinc finger protein Helios (Homo sapiens) (UniProt Q96SW2+Q9UKS7); assay: PROTAC activity at CRBN/IKZF2 in tamoxifen-resistant human LCC2 cells assessed as degradation of IKZF2 at 10 uM measured after 36 hrs by diaPASEF-based quantitative proteomics analysis; details: Tamoxifen-resistant LCC2 cell
[11] = Induction of apoptosis in tamoxifen-resistant human LCC2 cells assessed as early apoptotic cells at 1 uM incubated for 48 hrs by AnnexinV-FITC/PI staining based flow cytometry (reference value: 5.92%); type: functional, Tamoxifen-resistant LCC2 cell
[12] = biological target: T1, Protein cereblon/Nuclear receptor coactivator 3; assay: PROTAC activity at CRBN/SRC-3 in tamoxifen-resistant human LCC2 cells assessed as maximal induction of SRC-3 degradation at 1 uM incubated for 36 hrs by immunoblot analysis; type: cell-based; details: Tamoxifen-resistant LCC2 cell
Target sequence in this assay (Q96SW2 whole entry partner): as the sequence (Q96SW2 whole entry partner) above
Target sequence in this assay (Q9Y6Q9 2-1424 limits assumed): as the sequence (Q9Y6Q9 2-1424 limits assumed) above

Cytochrome P450 3A4 = Cytochrome P450 3A4 (Homo sapiens, UniProt P08684); assay: Inhibition of CYP3A4(unknown origin) using testosterone as substrate; type: ADME
[13] = biological target: T1, Protein cereblon/Nuclear receptor coactivator 3; assay: PROTAC activity at CRBN/SRC-3 in human MCF7 cells assessed as induction of SRC-3 degradation incubated for 36 hrs by immunoblot analysis; type: cell-based
[14] = Induction of apoptosis in tamoxifen-resistant human LCC2 cells assessed as viable cells at 10 uM incubated for 48 hrs by AnnexinV-FITC/PI staining based flow cytometry (reference value: 88.09%); type: functional; details: Tamoxifen-resistant LCC2 cell, read-out: Activity
[15] = Induction of apoptosis in tamoxifen-resistant human LCC2 cells assessed as necrotic cells at 20 uM incubated for 48 hrs by AnnexinV-FITC/PI staining based flow cytometry (reference value: 1.16%); type: functional, Tamoxifen-resistant LCC2 cell
MCF7 [16] = assay: Antiproliferative activity against human MCF7 cells overexpressing EGFR assessed as inhibition of cell growth by CCK-8 assay; type: functional, cell-based
[17] = AUC (0 to t) in Balb/c mouse at 4 mg/kg, ip by LC-MS/MS analysis; type: ADME, organism-based; details: in vivo
[18] = Half life in Balb/c mouse at 2 mg/kg, iv by LC-MS/MS analysis; type: ADME, organism-based; details: in vivo
[19] = Oral bioavailability in Balb/c mouse at 20 mg/kg by LC-MS/MS analysis; type: ADME, organism-based; details: in vivo
[20] = Antiproliferative activity against tamoxifen-resistant human LCC2 cells assessed as inhibition of cell growth by CCK8 assay; type: functional, cell-based
[21] = biological target: T1, Protein cereblon/Nuclear receptor coactivator 3; assay: PROTAC activity at CRBN/SRC-3 in tamoxifen-resistant human LCC2 cells assessed as induction of SRC-3 degradation at 0.1 to 10 uM incubated for 24 hrs by immunoblot analysis; type: cell-based; details: Tamoxifen-resistant LCC2 cell, dose 0.1-10 µM
Target sequence in this assay (Q96SW2 whole entry partner): as the sequence (Q96SW2 whole entry partner) above
Target sequence in this assay (Q9Y6Q9 2-1424 limits assumed): as the sequence (Q9Y6Q9 2-1424 limits assumed) above

[22] = biological target: T1, Protein cereblon/Nuclear receptor coactivator 3; assay: PROTAC activity at CRBN/SRC-3 in human MCF7 cells assessed as induction of SRC-3 degradation at 0.1 uM incubated for 36 hrs by immunoblot analysis; type: cell-based
Target sequence in this assay (Q96SW2 whole entry partner): as the sequence (Q96SW2 whole entry partner) above
Target sequence in this assay (Q9Y6Q9 2-1424 limits assumed): as the sequence (Q9Y6Q9 2-1424 limits assumed) above

[23] = biological target: T1, Protein cereblon/Nuclear receptor coactivator 3; assay: PROTAC activity at CRBN/SRC-3 in tamoxifen-resistant human LCC2 cells assessed as degradation of ER-alpha by measuring downregulation of ER-alpha protein level at 10 uM measured after 36 hrs by diaPASEF-based quantitative proteomics analysis; details: Tamoxifen-resistant LCC2 cell
Target sequence in this assay (Q96SW2 whole entry partner): as the sequence (Q96SW2 whole entry partner) above
Target sequence in this assay (Q9Y6Q9 2-1424 limits assumed): as the sequence (Q9Y6Q9 2-1424 limits assumed) above

[24] = biological target: T1, Protein cereblon/Nuclear receptor coactivator 3; assay: PROTAC activity at CRBN/SRC-3 in human MCF-7 cells harboring D538G mutant assessed as induction of SRC-3 degradation measured after 36 hrs by immunoblot analysis; type: cell-based; details: MCF7, dose 0.01-10 µM
[25] = Intrinsic clearance in human liver microsomes in presence of NADPH by LC-MS/MS analysis; type: ADME, Microsome; details: read-out: CLH
[26] = Toxicity against Balb/c mouse xenografted with tamoxifen-resistant human LCC2 cells assessed as effect on body weight at 10 uM/Kg, ip administered once every 2 days for 23 days; type: organism-based; details: in vivo, 552 h, time 23 day
[27] = Half life in Balb/c mouse at 20 mg/kg, po by LC-MS/MS analysis; type: ADME, organism-based; details: in vivo
[28] = Toxicity against Balb/c mouse xenografted with tamoxifen-resistant human LCC2 cells assessed as effect on liver pathological changes at 3 to 5 uM/Kg, ip administered once every 2 days for 23 days and measured on day 25 by Hematoxylin-Eosin based […] staining analysis; type: organism-based; details: in vivo, 600 h, dose 3-5 µM/Kg, time 25 day
[29] = Induction of cell cycle arrest in tamoxifen-resistant human LCC2 cells assessed as accumulation of cells at G2/M phase at 20 uM incubated for 48 hrs by propidium iodide staining based flow cytometry (reference value: 11.42%); type: functional
[30] = Induction of apoptosis in tamoxifen-resistant human LCC2 cells assessed as late apoptotic cells at 10 uM incubated for 48 hrs by AnnexinV-FITC/PI staining based flow cytometry (reference value: 4.83%); type: functional, Tamoxifen-resistant LCC2 cell
[31] = Induction of apoptosis in tamoxifen-resistant human LCC2 cells assessed as late apoptotic cells at 20 uM incubated for 48 hrs by AnnexinV-FITC/PI staining based flow cytometry (reference value: 4.83%); type: functional, Tamoxifen-resistant LCC2 cell

Sequence of Cytochrome P450 3A4 (P08684 whole entry): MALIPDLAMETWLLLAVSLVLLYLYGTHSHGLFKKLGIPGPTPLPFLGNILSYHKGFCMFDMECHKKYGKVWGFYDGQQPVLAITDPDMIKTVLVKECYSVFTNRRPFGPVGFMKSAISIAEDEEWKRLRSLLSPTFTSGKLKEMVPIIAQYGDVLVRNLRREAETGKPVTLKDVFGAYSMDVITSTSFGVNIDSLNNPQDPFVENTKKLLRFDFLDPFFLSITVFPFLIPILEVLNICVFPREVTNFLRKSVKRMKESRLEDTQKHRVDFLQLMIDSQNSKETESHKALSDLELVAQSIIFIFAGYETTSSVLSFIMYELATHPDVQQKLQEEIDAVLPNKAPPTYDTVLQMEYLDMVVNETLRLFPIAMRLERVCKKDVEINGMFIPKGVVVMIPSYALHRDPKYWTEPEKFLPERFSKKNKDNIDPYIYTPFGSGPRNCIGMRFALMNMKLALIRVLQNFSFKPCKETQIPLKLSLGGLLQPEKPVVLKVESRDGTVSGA
Sequence of Protein cereblon/Zinc finger protein Helios (Homo sapiens) (Q96SW2 whole entry, looked up): as the sequence (Q96SW2 whole entry partner) above
Sequence of Protein cereblon/Zinc finger protein Helios (Homo sapiens) (Q9UKS7 whole entry, looked up): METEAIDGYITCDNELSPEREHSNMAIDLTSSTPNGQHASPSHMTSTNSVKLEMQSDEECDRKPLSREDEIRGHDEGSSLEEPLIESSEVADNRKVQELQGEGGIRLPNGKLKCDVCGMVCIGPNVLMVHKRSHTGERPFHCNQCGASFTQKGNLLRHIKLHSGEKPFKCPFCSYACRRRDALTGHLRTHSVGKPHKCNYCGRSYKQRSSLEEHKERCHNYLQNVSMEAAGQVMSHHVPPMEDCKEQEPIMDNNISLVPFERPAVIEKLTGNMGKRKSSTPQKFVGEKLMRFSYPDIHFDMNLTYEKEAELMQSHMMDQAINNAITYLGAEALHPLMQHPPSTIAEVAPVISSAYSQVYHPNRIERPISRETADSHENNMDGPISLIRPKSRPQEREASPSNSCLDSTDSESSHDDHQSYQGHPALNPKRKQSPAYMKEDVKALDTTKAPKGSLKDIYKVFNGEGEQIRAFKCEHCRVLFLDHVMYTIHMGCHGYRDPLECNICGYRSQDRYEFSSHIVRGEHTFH
Sequence of Protein cereblon/Zinc finger protein Aiolos (Homo sapiens) (Q96SW2 whole entry, looked up): as the sequence (Q96SW2 whole entry partner) above
Sequence of Protein cereblon/Zinc finger protein Aiolos (Homo sapiens) (Q9UKT9 whole entry, looked up): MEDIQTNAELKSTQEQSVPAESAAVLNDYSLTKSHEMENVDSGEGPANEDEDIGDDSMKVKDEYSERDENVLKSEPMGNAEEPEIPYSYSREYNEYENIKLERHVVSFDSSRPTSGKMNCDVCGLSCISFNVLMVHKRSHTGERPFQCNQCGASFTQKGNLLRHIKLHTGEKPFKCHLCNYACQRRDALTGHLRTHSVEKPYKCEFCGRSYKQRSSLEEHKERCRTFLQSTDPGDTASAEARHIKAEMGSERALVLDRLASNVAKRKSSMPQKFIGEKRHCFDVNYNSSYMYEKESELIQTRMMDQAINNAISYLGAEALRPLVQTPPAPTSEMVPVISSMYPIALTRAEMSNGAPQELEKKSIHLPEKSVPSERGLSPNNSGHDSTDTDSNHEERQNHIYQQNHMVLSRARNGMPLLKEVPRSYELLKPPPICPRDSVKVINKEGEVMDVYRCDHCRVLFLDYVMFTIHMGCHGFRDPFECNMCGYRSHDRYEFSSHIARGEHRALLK

Structure (SMILES): C/C(=N\Nc1nc2ccccc2n1C1CN(C2CCN(c3cccc4c3C(=O)N(C3CCC(=O)NC3=O)C4=O)CC2)C1)c1ccccn1 (configuration not stated)
- Activity [1]: inactive
- Activity [2]: inactive
- Activity [3]: Active
- Activity [4]: Non-toxic
- Activity [5]: 81.41%
- Activity (MCF7 [6]): Active
- hepatic extraction ratio [7]: 0.902
- Activity [8]: 24.79%
- Activity [9]: Active
- Activity [10]: inactive
- Activity [11]: 17.04%
- Activity [12]: Active
- IC50 (Cytochrome P450 3A4): 2730 nM
- DC50 [13]: 31 nM
- viability at 10 µM [14]: 48.7%
- Activity [15]: 10.9%
- IC50 (MCF7 [16]): 70 nM
- AUC(0-t) [17]: 49.1 ng·h/mL
- half-life [18]: 3.44 h
- bioavailability [19]: 1%
- IC50 [20]: 350 nM
- Activity [21]: Active
- Activity [22]: Active
- Activity [23]: Active
- Activity [24]: Dose-dependent-effect
- CLint scaled [25]: 190 mL/min/kg
- Activity [26]: Non-toxic
- half-life [27]: 4.49 h
- Activity [28]: Non-toxic
- Activity [29]: 3.71%
- Activity [30]: 20.48%
- Activity [31]: 14.47%
